Reference: patent publication US10105367B2, “Therapeutic thiophene-, furan-, and pyridine-fused azolopyrimidin-5-(6h)-ones” (Dart Neuroscience (Cayman) Ltd., priority 2012, dated 2018)
Values joined by “and” are separate entries in the source; they are usually repeats but may differ in a detail not shown here. Identical values can stand only once.

These compounds were tested against human PDE1B (Homo sapiens (Human), UniProt Q01064) (assay: PDE1B inhibitory assay (IMAP TR-FRET)). Details: PDE1B pIC50, negative log of half-maximal molar inhibitory concentration; 200 nM FAM-cAMP, Calmodulin, CaCl2.
Method: PDE1B inhibition was determined by an IMAP TR-FRET assay.
After a brief centrifugation, the plates were incubated for 30 minutes at room temperature. The assay was terminated by adding 5 μL IMAP binding reagent/Tb complex (Molecular Devices, Sunnyvale, Calif.) to each well.
Plates were incubated 1 hour at room temperature and read on a Viewlux multimode plate reader (Perkin Elmer). The instrument was set to excite using the DUG11 filter and measure using 490/10 nm and 520/10 nm filters. Ratios of acceptor and donor were then calculated.
For IC50 calculations, the values of % efficacy versus a series of compound concentrations were then plotted using non-linear regression analysis of sigmoidal dose-response curves generated with the equation Y=B+(T−B)/1+10((Log EC50−X)×Hill Slope), where Y=percent activity, B=minimum percent efficacy, T=maximum percent efficacy, X=logarithm of compound and Hill Slope=slope factor or Hill coefficient. The IC50 value was determined by the concentration causing a half-maximal percent efficacy.
With `COc1ccc(Cn2c(=O)n3nccc3c3cc(CN4CCOCC4)sc32)cc1` [Example 183, 4-(4-Methoxybenzyl)-2-(morpholinomethyl)pyrazolo[1,5-c]thieno[3,2-e]pyrimidin-5(4H)-one] the IC50 was 0.1 to 1 µM. `COc1ccc(Cn2c(=O)n3ncnc3c3cc(CN4CCCN(C)CC4)cnc32)cc1` [Example 232] showed an IC50 of 1 to 10 µM. `COc1ccc(Cn2c(=O)n3ncnc3c3c4c(sc32)CN(C(C)C(F)F)CC4)cc1` (stereo not drawn) [Example 151] gave an IC50 of 0.1 to 1 µM. For `COc1ccc(Cn2c(=O)n3ncnc3c3cc(CN4C[C@@H](C)O[C@@H](C)C4)cnc32)c(Cl)c1` [Example 296], the IC50 was 0.1 to 1 µM. `Cc1csc2c1c1ncnn1c(=O)n2Cc1ccccc1` [Example 6] showed an IC50 of 0.1 to 1 µM. Compound `COc1ccc(Cn2c(=O)n3ncnc3c3c(C)c(CN4CCCC4)sc32)cc1` [Example 43, 6-(4-Methoxybenzyl)-9-methyl-8-(pyrrolidin-1-ylmethyl)thieno[3,2-e][1,2,4]triazolo[1,5-c]pyrimidin-5(6H)-one] has an IC50 of 0.1 to 1 µM. Work on `COc1ccc(Cn2c(=O)n3ncnc3c3cc(CN4CCCN(C(C)=O)CC4)cnc32)cc1` [Example 234] yielded an IC50 of 0.1 to 1 µM. `Cc1cc2c(s1)n(Cc1ccccc1)c(=O)n1ncnc21` [Example 12] gave an IC50 of 1 to 10 µM. For `C[C@@H]1CN(Cc2cnc3c(c2)c2ncnn2c(=O)n3Cc2ccc(OC(F)(F)F)cc2)C[C@H](C)O1` [Example 273, 9-(((2S,6R)-2,6-Dimethylmorpholino)methyl)-6-(4-(trifluoromethoxy)benzyl)pyrido[3,2-e][1,2,4]triazolo[1,5-c]pyrimidin-5(6H)-one], the IC50 was 0.1 to 1 µM and 1 to 10 µM. `COc1ccc(Cn2c(=O)n3ncnc3c3cc(CCNC(=O)OCc4ccccc4)cnc32)cc1` [Example 204, Benzyl 2-(6-(4-Methoxybenzyl)-5-oxo-5,6-dihydropyrido[3,2-e][1,2,4]triazolo[1,5-c]pyrimidin-9-yl)ethylcarbamate] showed an IC50 of 0.1 to 1 µM. `COc1ccc(Cn2c(=O)n3ncnc3c3cc(CCN)cnc32)cc1` [Example 211, 9-(2-Aminoethyl)-6-(4-methoxybenzyl)pyrido[3,2-e][1,2,4]triazolo[1,5-c]pyrimidin-5(6H)-one] gave an IC50 of 1 to 10 µM. Compound `COc1ccc(Cn2c(=O)n3ncnc3c3ccc(CNc4ccccc4)nc32)cc1` [Example 263] has an IC50 of 0.1 to 1 µM. `COc1ccc(Cn2c(=O)n3ncnc3c3ccc(CNCc4ccccc4)nc32)cc1` [Example 262] gave an IC50 of 0.1 to 1 µM. `COc1ccc(Cn2c(=O)n3ncnc3c3cc(C(C)=O)cnc32)cc1` [Example 265, 9-Acetyl-6-(4-methoxybenzyl)pyrido[3,2-e][1,2,4]triazolo[1,5-c]pyrimidin-5(6H)-one] gave an IC50 of 0.1 to 1 µM. Compound `COc1ccc(Cn2c(=O)n3ncnc3c3cc(N(C)C4CCOCC4)cnc32)cc1` [Example 200] has an IC50 of 0.1 to 1 µM. Compound `COc1ccc(Cn2c(=O)n3ncnc3c3cc(CO)cnc32)cc1` [Example 217, 9-(Hydroxymethyl)-6-(4-methoxybenzyl)pyrido[3,2-e][1,2,4]triazolo[1,5-c]pyrimidin-5(6H)-one] has an IC50 of 0.1 to 1 µM. With `C[C@@H]1CN(Cc2cnc3c(c2)c2ncnn2c(=O)n3Cc2cc(F)cc(F)c2)C[C@H](C)O1` [Example 285] the IC50 was 1 to 10 µM. With `C=Cc1cnc2c(c1)c1ncnn1c(=O)n2Cc1ccc(OC)cc1` [Example 214, 6-(4-Methoxybenzyl)-9-vinylpyrido[3,2-e][1,2,4]triazolo[1,5-c]pyrimidin-5(6H)-one] the IC50 was 0.1 to 1 µM. `COc1ccc(Cn2c(=O)n3ncnc3c3ccc(CN4Cc5ccccc5C4)nc32)cc1` [Example 264] showed an IC50 of 0.1 to 1 µM. With `COc1ccc(Cn2c(=O)n3ncnc3c3cc(CN4CCN(C(=O)C(F)(F)F)CC4)cnc32)cc1` [Example 254] the IC50 was 0.1 to 1 µM. `O=c1n(Cc2ccccc2)c2sccc2c2ncnn12` [Example 24] gave an IC50 of 1 to 10 µM. `CC(C)CCc1cc2c(s1)n(Cc1ccccc1)c(=O)n1ncnc21` [Example 25] showed an IC50 of 0.1 to 1 µM. `COc1ccc(Cn2c(=O)n3ncnc3c3cc(N(C)CCCN(C)C)cnc32)cc1` [Example 202] showed an IC50 of 1 to 10 µM. Work on `CSc1ccc(Cn2c(=O)n3ncnc3c3cc(CN4C[C@@H](C)O[C@@H](C)C4)cnc32)cc1` [Example 303] yielded an IC50 of 0.1 to 1 µM. `O=c1n(Cc2ccc(Cl)cc2)c2sc3c(c2c2ncnn12)CCOC3` [Example 87] showed an IC50 of 0.1 to 1 µM. `Cc1csc2c1c1ncnn1c(=O)n2Cc1ccc(Cl)cc1` [Example 3] gave an IC50 of 0.1 to 1 µM. With `COc1ccc(Cn2c(=O)n3ncnc3c3ncc(CN4CCSCC4)cc32)cc1` [Example 243] the IC50 was 1 to 10 µM. `COc1ccc(Cn2c(=O)n3ncnc3c3cc(CN4C[C@@H](C)O[C@@H](C)C4)cnc32)c(Br)c1` [Example 286] gave an IC50 of 1 to 10 µM. Compound `COc1ccc(Cn2c(=O)n3ncnc3c3cc(C(O)CN4CCOCC4)cnc32)cc1` (stereo not drawn) [Example 267, 9-(1-Hydroxy-2-morpholinoethyl)-6-(4-methoxybenzyl)pyrido[3,2-e][1,2,4]triazolo[1,5-c]pyrimidin-5(6H)-one] has an IC50 of 0.1 to 1 µM. `COCOCc1cnc2c(c1)c1ncnn1c(=O)n2Cc1ccc(OC)cc1` [Example 215] showed an IC50 of 0.1 to 1 µM. Work on `C[C@@H]1CN(Cc2cnc3c(c2)c2ncnn2c(=O)n3Cc2ccc(F)c(F)c2)C[C@H](C)O1` [Example 302] yielded an IC50 of 0.1 to 1 µM. Compound `O=c1n(Cc2ccc(Cl)cc2)c2sccc2c2ncnn12` [Example 5] has an IC50 of 0.1 to 1 µM. `COc1ccc(Cn2c(=O)n3ncnc3c3nc(N(C)C4CCN(C)CC4)cnc32)cc1` [Example 195] showed an IC50 of 1 to 10 µM. Compound `O=c1n(Cc2ccc(Cl)cc2)c2sc3c(c2c2ncnn12)CCN(CC(F)(F)F)C3` [Example 107] has an IC50 of 0.1 to 1 µM. Compound `COc1ccc(Cn2c(=O)n3ncnc3c3cc(-c4c(C)noc4C)sc32)cc1` [Example 42] has an IC50 of 0.1 to 1 µM. `COc1ccc(Cn2c(=O)n3ncnc3c3c4c(sc32)COCC4)cc1F` [Example 95] showed an IC50 of 0.1 to 1 µM. `COc1ccc(Cn2c(=O)n3ncnc3c3cc(CN4C[C@@H](C)O[C@@H](C)C4)cnc32)cc1F` [Example 276] was tested, and the IC50 was 0.1 to 1 µM. `COc1ccc(Cn2c(=O)n3ncnc3c3cc(C(F)CN4CCOCC4)cnc32)cc1` (stereo not drawn) [Example 269, 9-(1-Fluoro-2-morpholinoethyl)-6-(4-methoxybenzyl)pyrido[3,2-e][1,2,4]triazolo[1,5-c]pyrimidin-5(6H)-one] was tested, and the IC50 was 0.1 to 1 µM. With `C[C@@H]1CN(Cc2cnc3c(c2)c2ncnn2c(=O)n3Cc2ccc(F)c(Br)c2)C[C@H](C)O1` [Example 278] the IC50 was 0.1 to 1 µM. In the case of `COc1ccc(Cn2c(=O)n3ncnc3c3c4c(sc32)CN(C(=O)C2CCN(C)C2)CC4)cc1` (stereo not drawn) [Example 163], the IC50 is reported as 0.1 to 1 µM. In the case of `COc1ccc(Cn2c(=O)n3ncnc3c3cc(CN(C)C4CCCCC4)cnc32)cc1` [Example 235], the IC50 is reported as 1 to 10 µM. `O=c1n(Cc2ccc(Cl)c(F)c2)c2sc3c(c2c2ncnn12)CCOC3` [Example 93] gave an IC50 of 0.1 to 1 µM. With `O=c1n(Cc2cccc(Cl)c2)c2sc3c(c2c2ncnn12)CCCC3` [Example 85] the IC50 was 0.1 to 1 µM. In the case of `COc1ccc(Cn2c(=O)n3ncnc3c3cc(N[C@H]4CCCC[C@@H]4N)cnc32)cc1` [Example 194], the IC50 is reported as 1 to 10 µM.

Same assay, conditions: negative log of half-maximal molar inhibitory concentration; 200 nM FAM-cAMP, Calmodulin, CaCl2
For `COc1ccc(Cn2c(=O)n3ncnc3c3c(C)c(CN4CCOC(C)C4)sc32)cc1` (stereo not drawn) [Example 70], the “PDE1B pIC50” value was >7. For `Cc1cc2c(s1)n(Cc1ccc(-c3ccccc3)cc1)c(=O)n1ncnc21` [Example 14], the “PDE1B pIC50” value was <5. In the case of `COc1ccc(Cn2c(=O)n3ncnc3c3c4c(sc32)CN(C(=O)C2CC2)CC4)cc1` [Example 159], the “PDE1B pIC50” value is reported as >7. `COc1ccc(Cn2c(=O)n3ncnc3c3c(C)c(CN(C)C)sc32)cc1` [Example 45] was tested, and the “PDE1B pIC50” value was >7. `C[C@@H]1CN(Cc2cnc3c(c2)c2ncnn2c(=O)n3Cc2ccc(S(C)(=O)=O)cc2)C[C@H](C)O1` [Example 282] was tested, and the “PDE1B pIC50” value was <5. For `COc1c(F)cc(Cn2c(=O)n3ncnc3c3c4c(sc32)COCC4)cc1F` [Example 98], the “PDE1B pIC50” value was <5. In the case of `COc1ccc(Cn2c(=O)n3ncnc3c3c4c(sc32)CN(C(=O)C2CCOC2)CC4)cc1` (stereo not drawn) [Example 170], the “PDE1B pIC50” value is reported as >7. With `COc1ccc(Cn2c(=O)n3ncnc3c3cc(CN4C[C@@H](C)O[C@@H](C)C4)sc32)cc1` [Example 33] the “PDE1B pIC50” value was >7. For `CCN1CCN(Cc2cc3c(s2)n(Cc2ccc(OC)cc2)c(=O)n2ncnc32)CC1=O` [Example 34], the “PDE1B pIC50” value was >7. With `COc1ccc(Cn2c(=O)n3ncnc3c3c4c(sc32)CN(Cc2scnc2C)CC4)cc1` [Example 123] the “PDE1B pIC50” value was >7. For `COc1ccc(Cn2c(=O)n3ncnc3c3c4c(sc32)CN(Cc2ncccn2)CC4)c(F)c1` [Example 137], the “PDE1B pIC50” value was >7. With `COc1ccc(Cn2c(=O)n3ncnc3c3c4c(sc32)CN(CCCSC)CC4)cc1` [Example 112] the “PDE1B pIC50” value was >7. With `COc1ccc(Cn2c(=O)n3ncnc3c3c4c(sc32)COCC4)cc1` [Example 90] the “PDE1B pIC50” value was >7. With `COc1ccc(Cn2c(=O)n3ncnc3c3c4c(sc32)CN(Cc2ccccn2)CCC4)cc1` [Example 146] the “PDE1B pIC50” value was >7. `Cc1csc2c1c1ncnn1c(=O)n2Cc1ccc(-c2ccccc2)cc1` [Example 7] was tested, and the “PDE1B pIC50” value was <5. `COc1ccc(Cn2c(=O)n3ncnc3c3cc(CN4CCOC(C)(C)C4)sc32)cc1` [Example 36] was tested, and the “PDE1B pIC50” value was >7. For `COc1ccc(Cn2c(=O)n3ncnc3c3c(C)c(CN(C)C4CC4)sc32)cc1` [Example 46], the “PDE1B pIC50” value was >7. In the case of `COc1ccc(Cn2c(=O)n3ncnc3c3c4c(sc32)CN(Cc2ccncn2)CC4)cc1` [Example 119], the “PDE1B pIC50” value is reported as >7. In the case of `COc1ccc(Cn2c(=O)n3ncnc3c3c4c(sc32)CN(CC2CCOC2)CCC4)cc1` (stereo not drawn) [Example 143], the “PDE1B pIC50” value is reported as >7. With `COC[C@@H]1CCCN1Cc1sc2c(c1C)c1ncnn1c(=O)n2Cc1ccc(OC)cc1` [Example 58] the “PDE1B pIC50” value was >7. For `Cn1ccnc1CN1CCc2c(sc3c2c2ncnn2c(=O)n3Cc2ccc(Cl)cc2F)C1` [Example 131], the “PDE1B pIC50” value was >7. In the case of `COc1ccc(Cn2c(=O)n3ncnc3c3c(C)c(CNCc4cccnc4)sc32)cc1` [Example 52], the “PDE1B pIC50” value is reported as >7. For `COc1ccc(Cn2c(=O)n3nccc3c3cc(CN4C[C@@H](C)O[C@@H](C)C4)sc32)cc1` [Example 184], the “PDE1B pIC50” value was >7. `COc1ccc(Cn2c(=O)n3ncnc3c3c(C)c(CN(C)CC4CCOC4)sc32)cc1` (stereo not drawn) [Example 59] was tested, and the “PDE1B pIC50” value was >7. `COc1ccc(Cn2c(=O)n3ncnc3c3c4c(sc32)N(C(=O)C2CCOC2)CCC4)cc1` (stereo not drawn) [Example 175] was tested, and the “PDE1B pIC50” value was >7.
